For 14 molecules, IC50 and GI50 results are on record in patent US9580390B2, “Indazole compounds as kinase inhibitors and method of treating cancer with same” (University Health Network, priority 2011, dated 2017).

The target in assay [1] is T1, human TTK (Homo sapiens, UniProt P33981).
T1 construct: amino terminal GST fusion of full length human TTK; purchased Invitrogen
T1 sequence (P33981 1-857): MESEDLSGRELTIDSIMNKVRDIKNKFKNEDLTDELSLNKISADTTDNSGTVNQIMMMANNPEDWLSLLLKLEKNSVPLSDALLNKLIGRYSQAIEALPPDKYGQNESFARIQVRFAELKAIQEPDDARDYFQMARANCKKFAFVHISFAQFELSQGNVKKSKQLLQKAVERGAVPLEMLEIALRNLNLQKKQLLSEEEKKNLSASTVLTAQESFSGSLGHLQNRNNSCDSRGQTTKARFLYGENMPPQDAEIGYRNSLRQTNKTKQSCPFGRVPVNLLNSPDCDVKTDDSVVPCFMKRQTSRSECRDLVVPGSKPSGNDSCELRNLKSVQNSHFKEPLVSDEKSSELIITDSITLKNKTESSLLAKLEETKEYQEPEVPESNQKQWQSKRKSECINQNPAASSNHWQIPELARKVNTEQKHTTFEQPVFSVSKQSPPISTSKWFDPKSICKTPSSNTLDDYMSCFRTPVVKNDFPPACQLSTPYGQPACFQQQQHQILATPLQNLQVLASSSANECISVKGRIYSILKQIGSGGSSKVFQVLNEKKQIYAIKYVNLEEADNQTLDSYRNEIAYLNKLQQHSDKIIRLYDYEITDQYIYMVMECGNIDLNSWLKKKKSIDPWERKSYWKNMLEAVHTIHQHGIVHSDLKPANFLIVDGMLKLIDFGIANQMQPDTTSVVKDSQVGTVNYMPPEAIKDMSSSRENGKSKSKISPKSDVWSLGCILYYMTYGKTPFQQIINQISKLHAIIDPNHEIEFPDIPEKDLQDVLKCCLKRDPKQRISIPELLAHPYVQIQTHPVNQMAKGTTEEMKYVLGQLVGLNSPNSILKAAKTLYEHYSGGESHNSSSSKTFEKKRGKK
Description: TTK inhibition assay (indirect ELISA). The format is biochemical. The note with it: read-out: TTK IC50 Range. On the technique in general: An ELISA detects its analyte on a solid surface through an enzyme-linked reagent.

Assay [2] concerns Breast cancer cells. Description: Cancer cell line growth inhibition (SRB assay). The format is cell-based. To be noted: Homo sapiens; MDA-MB-468; read-out: Cancer Cell Line GI50 Range MDA-MB-468. In general terms: In SRB staining, fixed cells bind dye roughly in proportion to their protein.
In assay [3] the test system is colon cancer cells (HCT116). Kind of assay: Cancer cell line growth inhibition (SRB assay). The format is cell-based. The note with it: Homo sapiens, HCT-116; read-out: Cancer Cell Line GI50 Range HCT116.
Assay [4] relates to ovarian cancer cells (PA-1). Description: Cancer cell line growth inhibition (SRB assay). The format is cell-based. To be noted: Homo sapiens, PA-1; read-out: Cancer Cell Line GI50 Range PA-1.
Assay [5] has as its system TICs (Colon 12). Kind of assay: Colon tumor-initiating cell growth inhibition (Alamar Blue). The note with it: 216 h; Colon 12 TICs, 9 days; read-out: Tumor Initiating Cell GI50 Range Colon 12. The format is cell-based. In general terms: Resazurin is reduced to fluorescent resorufin, in cell work by metabolically active cells.
Description: Materials and Methods: Non-tissue or tissue cultured treated T-75 flask and 96-well plates were purchased from VWR. Vitamin B-27 supplement, MEM NEAA (minimum essential medium non essential amino acids), sodium pyruvate, L-glutamine, N2 supplement, penicillin-streptomycin and fungizone/amphotericin B were obtained from Invitrogen. Lipid mixture, heparin and EGF were purchased from Sigma; bFGF from BD Biosciences. Tumor Initiating Cells (TICs) from colon were routinely maintained using non-tissue cultured treated T-75 flasks in DMEM:F12 medium containing 0.2×B-27 supplement, 4 ug/ml heparin, 1×MEM NEAA, 1× sodium pyruvate, 1 mM glutamine, 10 pg/ul bFGF, 20 pg/ul EGF, 1×N2 supplement, lipid mixture, penicillin-streptomycin and fungizone/amphotericin B. Ovarian TICs were routinely maintained using tissue cultured treated T-75 flasks in DMEM:F12 medium containing 1×B-27 supplement, 4 ug/ml heparin, 20 pg/ul bFGF, 20 pg/ul EGF and penicillin-streptomycin.
Assay Protocol: Compounds described herein were dissolved in DMSO and further diluted in cell culture medium for GI50 determination. Colon TICs were trypsinized and seeded into non-tissue cultured treated 96-well plates with 4,000 cells/well. After 24 h, compound was added into the cell culture at different concentrations, and the final concentration of DMSO was adjusted to 0.1%. Cells were then cultured at 37° C. for 9 days. Ovarian TICs were trypsinized and seeded into tissue cultured treated 96-well plates with 1,000 cells/well. After 24 h, compound was added into the cell culture at different concentrations, and the final concentration of DMSO was adjusted to 0.1%. Cells were then cultured at 37° C. for 6 days. Cell viability was assessed by Alamar Blue assay: 10 ul of Alamar Blue was added into each well. After 4 hours incubation at 37° C., fluorescence was recorded at excitation 544 and emission 590. GI50 (Growth inhibition) was calculated using GraphPad Prism 4.0 software.
Assay [6] deals with TICs (Ovarian 2393A). Kind of assay: Ovarian tumor-initiating cell growth inhibition (Alamar Blue). The format is cell-based. The note with it: 144 h; Ovarian 2393A TICs, 6 days; read-out: Tumor Initiating Cell GI50 Range Ovarain 2393A.

SMILES strings stand for the structures.

As a reminder, the IC50 is the concentration at which inhibition is half-maximal. As a reminder, the GI50 is the concentration at which growth is held to half of that of the control. In the case of `CC(C)[C@H](NC(=O)c1ccc2[nH]nc(-c3ccc(N4C5CCC4CC(O)C5)cc3)c2c1)c1ccccc1Cl` (stereo partly drawn) [Example A356, N-((S)-1-(2-chlorophenyl)-2-methylpropyl)-3-(4-((1R,3S,5S)-3-hydroxy-8-azabicyclo[3.2.1]octan-8-yl)phenyl)-1H-indazole-5-carboxamide], in assay [1], the IC50 is less than 100 nM. The GI50 in assay [2], in assay [3], in assay [4], in assay [5] and in assay [6] was less than 100 nM throughout.
As for `CC(C)[C@H](NC(=O)c1ccc2[nH]nc(-c3ccc(N4C5COCC4CC(O)C5)cc3)c2c1)c1ccccc1Cl` (stereo partly drawn) [Example A421, N((S)-1-(2-chlorophenyl)-2-methylpropyl)-3-(4-((1R,5S,7R)-7-hydroxy-3-oxa-9-azabicyclo [3.3.1]nonan-9-yl)phenyl)-1H-indazole-5-carboxamide], the half-inhibitory concentration (IC50) in assay [1] is less than 100 nM. Moreover, the GI50 in assay [2], in assay [3], in assay [4], in assay [5] and in assay [6] was less than 100 nM in each case.
On to `CN1[C@@H]2CC[C@H]1C[C@@H](Oc1ccc(-c3n[nH]c4ccc(C(=O)NC(c5ccccn5)C5CCCC5)cc34)cc1)C2` (stereo partly drawn) [Example A244, N-(cyclopentyl(pyridin-2-yl)methyl)-3-(4-(((1R,3R,5S)-8-methyl-8-azabicyclo[3.2.1]octan-3-yl)oxy)phenyl)-1H-indazole-5-carboxamide], for which the IC50 in assay [1] was less than 100 nM. Besides, the GI50 is 100 to 500 nM in assay [2]; less than 100 nM in assay [3]; less than 100 nM in assay [4]; 100 to 500 nM in assay [5]; 100 to 500 nM in assay [6].
For the molecule `O=C(N[C@@H](c1ccccc1F)C1CC1)c1ccc2[nH]nc(-c3ccc(N4C5CCC4CC(O)C5)cc3)c2c1` (stereo partly drawn) [Example A266, N-((R)-cyclopropyl(2-fluorophenyl)methyl)-3-(4-((1R,3R,5S)-3-hydroxy-8-azabicyclo[3.2.1]octan-8-yl)phenyl)-1H-indazole-5-carboxamide], the concentration for half-maximal inhibition (IC50) in assay [1] was less than 100 nM. In addition, the GI50 in assay [2], in assay [3], in assay [4], in assay [5] and in assay [6] was less than 100 nM each time.
`CC(C)C[C@H](NC(=O)c1ccc2[nH]nc(-c3ccc(N4CC(N5CCOCC5)C4)cc3)c2c1)c1ccccc1Cl` [Example A315, (S)-N-(1-(2-chlorophenyl)-3-methylbutyl)-3-(4-(3-morpholinoazetidin-1-yl)phenyl)-1H-indazole-5-carboxamide]: in assay [1], the IC50 is less than 100 nM. In addition, the GI50 is 100 to 500 nM in assay [2]; less than 100 nM in assay [3]; less than 100 nM in assay [4]; less than 100 nM in assay [5]; 100 to 500 nM in assay [6].
With `CC(C)[C@H](NC(=O)c1ccc2[nH]nc(-c3ccc(OC4CCN(C[C@@H](O)C(F)(F)F)CC4)cc3)c2c1)c1ccccc1Cl` [Example A228, N-((S)-1-(2-chlorophenyl)-2-methylpropyl)-3-(4-((1-((R)-3,3,3-trifluoro-2-hydroxypropyl)piperidin-4-yl)oxy)phenyl)-1H-indazole-5-carboxamide], the IC50 in assay [1] was less than 100 nM. Further, the GI50 was 100 to 500 nM in assay [2]; 100 to 500 nM in assay [3]; 100 to 500 nM in assay [4]; more than 500 nM in assay [5]; 100 to 500 nM in assay [6].
On to `O=C(N[C@H](c1ccccn1)C1CC1)c1ccc2[nH]nc(-c3ccc(N4CC(C5COC5)C4)cc3)c2c1` [Example A311, (S)-N-(cyclopropyl(pyridin-2-yl)methyl)-3-(4-(3-(oxetan-3-yl)azetidin-1-yl)phenyl)-1H-indazole-5-carboxamide], for which, in assay [1], the 50% inhibitory concentration (IC50) was less than 100 nM. The GI50 in assay [2], in assay [3], in assay [4], in assay [5] and in assay [6] was less than 100 nM in each case.
Turning to `O=C(N[C@H](c1ccccn1)C1CCCC1)c1ccc2[nH]nc(-c3ccc(N4C5COCC4CC(O)C5)cc3)c2c1` (stereo partly drawn) [Example A420, N-((S)-cyclopentyl(pyridin-2-yl)methyl)-3-(4-((1R,5S,7R)-7-hydroxy-3-oxa-9-azabicyclo[3.3.1]nonan-9-yl)phenyl)-1H-indazole-5-carboxamide], in assay [1], the IC50 was less than 100 nM. For the same molecule, the GI50 in assay [2], in assay [3], in assay [4], in assay [5] and in assay [6] was less than 100 nM throughout.
For the molecule `CC(C)C[C@H](NC(=O)c1ccc2[nH]nc(-c3ccc(N4[C@@H]5CC[C@H]4COC5)cc3)c2c1)c1ccccn1` [Example A303, 3-(4-((1R,5S)-3-oxa-8-azabicyclo[3.2.1]octan-8-yl)phenyl)-N-((S)-3-methyl-1-(pyridin-2-yl)butyl)-1H-indazole-5-carboxamide], the IC50 in assay [1] is less than 100 nM. Moreover, the GI50 in assay [2], in assay [3], in assay [4], in assay [5] and in assay [6] was less than 100 nM each time.
Regarding `CC1=CC2(CCN(C)CC2)Oc2ccc(-c3n[nH]c4ccc(C(=O)N[C@H](c5ccccn5)C5CC5)cc34)cc21` [Example A260, (S)-N-(cyclopropyl(pyridin-2-yl)methyl)-3-(1′,4-dimethylspiro[chromene-2,4′-piperidin]-6-yl)-1H-indazole-5-carboxamide], the 50% inhibitory concentration (IC50) in assay [1] is less than 100 nM. Further, the GI50 in assay [2] was less than 100 nM; in assay [3] it was less than 100 nM; in assay [4], less than 100 nM; in assay [5], 100 to 500 nM; in assay [6] it was less than 100 nM.
On to `CN1CCC(Oc2ccc(-c3n[nH]c4ccc(C(=O)NC(c5ccccc5)C5CC5)cc34)cc2S(C)(=O)=O)CC1` (stereo not drawn) [Example A246, N-(cyclopropyl(phenyl)methyl)-3-(4-((1-methylpiperidin-4-yl)oxy)-3-(methylsulfonyl)phenyl)-1H-indazole-5-carboxamide], for which the IC50 in assay [1] is less than 100 nM. Also, the 50% growth inhibitory concentration (GI50) is more than 500 nM in assay [2]; 100 to 500 nM in assay [3]; less than 100 nM in assay [4]; more than 500 nM in assay [5]; more than 500 nM in assay [6].
Take `O=C(N[C@H](c1ccccc1F)C1CC1)c1ccc2[nH]nc(-c3ccc(N4CCN(C5COC5)CC4)cc3)c2c1` [Example A269, (S)-N-(cyclopropyl(2-fluorophenyl)methyl)-3-(4-(4-(oxetan-3-yl)piperazin-1-yl)phenyl)-1H-indazole-5-carboxamide]: the IC50 in assay [1] is less than 100 nM. Further, the GI50 in assay [2], in assay [3], in assay [4], in assay [5] and in assay [6] was less than 100 nM in each case.
Take `CN1[C@@H]2CCC[C@H]1C[C@@H](Oc1ccc(-c3n[nH]c4ccc(C(=O)NC(c5ccccn5)C5CCCC5)cc34)cc1)C2` (stereo partly drawn) [Example A391, N-(cyclopentyl(pyridin-2-yl)methyl)-3-(4-(((1R,3R,5S)-9-methyl-9-azabicyclo[3.3.1]nonan-3-yl)oxy)phenyl)-1H-indazole-5-carboxamide]: the concentration for half-maximal inhibition (IC50) in assay [1] is less than 100 nM. Also, the GI50 is 100 to 500 nM in assay [2]; less than 100 nM in assay [3]; less than 100 nM in assay [4]; less than 100 nM in assay [5]; 100 to 500 nM in assay [6].
`CN1CCC2(CC1)CC(=O)c1cc(-c3n[nH]c4ccc(C(=O)N[C@H](c5ccccn5)C5CC5)cc34)ccc1O2` [Example A257, (S)-N-(cyclopropyl(pyridin-2-yl)methyl)-3-(1′-methyl-4-oxospiro[chroman-2,4′-piperidin]-6-yl)-1H-indazole-5-carboxamide]: the IC50 in assay [1] was less than 100 nM. In addition, the GI50 in assay [2] is 100 to 500 nM; in assay [3] it was less than 100 nM; in assay [4], less than 100 nM; in assay [5], 100 to 500 nM; in assay [6] it was 100 to 500 nM.
